In general, EC50 refers to the concentration needed to bring the measured effect to its halfway point. High values mean weaker potency, low ones greater potency.

Three compounds from patent publication US20160347813A1, “GLUCAGON ANALOGUES” (Zealand Pharma A/S, priority 2011, published 2016) can be followed below.

Residues, ends and D or L forms follow the SMILES beside them.

Experiment [1] deals with T1, human Glucagon-R (Homo sapiens, UniProt P47871).
T1 construct: The DNA encoding the Glucagon-R or the GLP-1-R was amplified by PCR using primers encoding terminal restriction sites for subcloning; expressed in transfected cells
T1 sequence (P47871 26-477): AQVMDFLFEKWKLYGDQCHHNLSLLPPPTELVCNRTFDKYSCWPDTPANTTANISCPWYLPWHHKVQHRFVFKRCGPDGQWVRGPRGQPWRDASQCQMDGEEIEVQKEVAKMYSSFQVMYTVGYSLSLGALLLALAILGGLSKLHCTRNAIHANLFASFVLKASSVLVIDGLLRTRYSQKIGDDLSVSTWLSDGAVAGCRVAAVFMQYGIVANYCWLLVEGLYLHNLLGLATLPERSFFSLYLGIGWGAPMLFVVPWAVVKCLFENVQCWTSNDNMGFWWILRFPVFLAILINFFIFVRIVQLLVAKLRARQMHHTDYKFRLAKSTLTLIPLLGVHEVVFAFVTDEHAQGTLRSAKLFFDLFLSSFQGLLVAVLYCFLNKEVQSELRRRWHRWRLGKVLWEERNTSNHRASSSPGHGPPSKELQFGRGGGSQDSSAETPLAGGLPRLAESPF
Put plainly: Glucagon receptor efficacy assay (cAMP generation in HEK293 cells). The class given is cell-based. As to conditions: cAMP generation in HEK293 cells expressing Glucagon receptor. From the text:
(§1) The DNA encoding the Glucagon-R or the GLP-1-R was amplified by PCR using primers encoding terminal restriction sites for subcloning. The 5′-end primers additionally encoded a near Kozak consensus sequence to ensure efficient translation. The fidelity of the DNA encoding the Glucagon-R and the GLP-1-R was confirmed by DNA sequencing. The PCR products encoding the Glucagon-R or the GLP-1-R were subcloned into a mammalian expression vector containing a neomycin (G418) resistance marker. The mammalian expression vectors encoding the Glucagon-R or the GLP-1-R were transfected into HEK293 cells by a standard calcium phosphate transfection method. 48 hr after transfection cells were seeded for limited dilution cloning and selected with 1 mg/ml G418 in the culture medium. Three weeks later 12 surviving colonies of Glucagon-R and GLP-1-R expressing cells were picked, propagated and tested in the Glucagon-R and GLP-1-R efficacy assays as described below. One Glucagon-R expressing clone and one GLP-1-R expressing clone were chosen for compound profiling.
(§2) On the day of analysis, growth medium was removed and the cells washed once with 200 μl Tyrode buffer. Cells were incubated in 100 μl Tyrode buffer containing increasing concentrations of test peptides, 100 μM IBMX, and 6 mM glucose for up 15 min at 37° C. The reaction was stopped by addition of 25 μl 0.5 M HCl and incubated on ice for 60 min. The cAMP content was estimated using the FlashPlate® cAMP kit from Perkin-Elmer according to manufacturer instructions. EC50 and relative efficacies compared to reference compounds (glucagon and GLP-1) were estimated by computer aided curve fitting.

Experiment [2] concerns the target T2, human GLP-1-R (Homo sapiens, UniProt P43220).
T2 construct: The DNA encoding the Glucagon-R or the GLP-1-R was amplified by PCR using primers encoding terminal restriction sites for subcloning; expressed in transfected cells
Put plainly: GLP-1 receptor efficacy assay (cAMP generation in HEK293 cells). The experiment is classed as cell-based. As to conditions: cAMP generation in HEK293 cells expressing GLP-1 receptor.
Text: as §1, §2

T2 sequence (P43220 24-463): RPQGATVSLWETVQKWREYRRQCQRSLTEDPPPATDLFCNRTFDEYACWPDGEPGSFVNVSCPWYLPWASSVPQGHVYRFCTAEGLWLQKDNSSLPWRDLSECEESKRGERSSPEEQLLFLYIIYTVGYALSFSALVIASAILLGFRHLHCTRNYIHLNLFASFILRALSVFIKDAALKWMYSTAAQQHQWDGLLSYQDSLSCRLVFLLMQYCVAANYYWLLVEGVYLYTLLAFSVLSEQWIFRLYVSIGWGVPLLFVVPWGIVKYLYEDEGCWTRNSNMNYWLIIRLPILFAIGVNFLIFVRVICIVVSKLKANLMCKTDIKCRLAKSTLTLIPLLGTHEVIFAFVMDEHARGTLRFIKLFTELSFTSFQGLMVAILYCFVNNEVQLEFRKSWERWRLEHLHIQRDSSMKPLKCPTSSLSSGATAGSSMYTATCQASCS

Regarding `CCCCCCCCCCCCCCCC(=O)N[C@@H](CCC(=O)NCCCC[C@H](NC(=O)[C@H](CCC(=O)O)NC(=O)[C@H](CC(=O)O)NC(=O)[C@H](CC(C)C)NC(=O)[C@H](Cc1ccc(O)cc1)NC(=O)[C@H](CCCNC(=N)N)NC(=O)[C@H](CO)NC(=O)[C@H](Cc1ccc(O)cc1)NC(=O)[C@H](CC(=O)O)NC(=O)[C@H](CO)NC(=O)[C@@H](NC(=O)[C@H](Cc1ccccc1)NC(=O)[C@@H](NC(=O)CNC(=O)[C@H](CCC(N)=O)NC(=O)[C@H](CO)NC(=O)[C@@H](N)Cc1c[nH]cn1)[C@@H](C)O)[C@@H](C)O)C(=O)N[C@@H](CCCNC(=N)N)C(=O)N[C@@H](C)C(=O)N[C@@H](CCCNC(=N)N)C(=O)N[C@@H](CC(=O)O)C(=O)N[C@@H](Cc1ccccc1)C(=O)N[C@H](C(=O)N[C@@H](CCC(=O)O)C(=O)N[C@@H](Cc1c[nH]c2ccccc12)C(=O)N[C@@H](CC(C)C)C(=O)N[C@@H](CC(C)C)C(=O)N[C@@H](CO)C(=O)N[C@@H](C)C(N)=O)[C@@H](C)CC)C(=O)O` [Compound 7] (HELM PEPTIDE1{H.S.Q.G.T.F.T.S.D.Y.S.R.Y.L.D.E.K.R.A.R.D.F.I.E.W.L.L.S.A.[am]}|PEPTIDE2{[CCCCCCCCCCCCCCCC(=O)[*:2]].[gGlu]}$PEPTIDE1,PEPTIDE2,17:R3-2:R2$$$V2.0), the EC50 in experiment [1] and in experiment [2] was 0.06 nM in each case. Take `CCCCCCCCCCCCCCCC(=O)N[C@@H](CCC(=O)NCCCC[C@H](NC(=O)[C@H](CCC(=O)O)NC(=O)[C@H](CC(=O)O)NC(=O)[C@H](CC(C)C)NC(=O)[C@H](Cc1ccc(O)cc1)NC(=O)[C@H](CCCNC(=N)N)NC(=O)[C@H](CO)NC(=O)[C@H](Cc1ccc(O)cc1)NC(=O)[C@H](CC(=O)O)NC(=O)[C@H](CO)NC(=O)[C@@H](NC(=O)[C@H](Cc1ccccc1)NC(=O)[C@@H](NC(=O)CNC(=O)[C@H](Cc1c[nH]cn1)NC(=O)[C@@H](CO)NC(=O)[C@@H](N)Cc1c[nH]cn1)[C@@H](C)O)[C@@H](C)O)C(=O)N[C@@H](CCCNC(=N)N)C(=O)N[C@@H](C)C(=O)N[C@@H](CCCNC(=N)N)C(=O)N[C@@H](CC(=O)O)C(=O)N[C@@H](Cc1ccccc1)C(=O)N[C@H](C(=O)N[C@@H](CCC(=O)O)C(=O)N[C@@H](Cc1c[nH]c2ccccc12)C(=O)N[C@@H](CC(C)C)C(=O)N[C@@H](CC(C)C)C(=O)N[C@@H](CO)C(=O)N[C@@H](C)C(N)=O)[C@@H](C)CC)C(=O)O` [Compound 11] (HELM PEPTIDE1{H.[dS].H.G.T.F.T.S.D.Y.S.R.Y.L.D.E.K.R.A.R.D.F.I.E.W.L.L.S.A.[am]}|PEPTIDE2{[CCCCCCCCCCCCCCCC(=O)[*:2]].[gGlu]}$PEPTIDE1,PEPTIDE2,17:R3-2:R2$$$V2.0): a half-maximal effect in experiment [1] (EC50) was put at 0.09 nM. The same measure, in the same setting: under `CCCCCCCCCCCCCCCC(=O)N[C@@H](CCC(=O)NCCCC[C@H](NC(=O)[C@H](CCC(=O)O)NC(=O)[C@H](CC(=O)O)NC(=O)[C@H](CC(C)C)NC(=O)[C@H](Cc1ccc(O)cc1)NC(=O)[C@H](CCCCN)NC(=O)[C@H](CO)NC(=O)[C@H](Cc1ccc(O)cc1)NC(=O)[C@H](CC(=O)O)NC(=O)[C@H](CO)NC(=O)[C@@H](NC(=O)[C@H](Cc1ccccc1)NC(=O)[C@@H](NC(=O)CNC(=O)[C@H](Cc1c[nH]cn1)NC(=O)[C@H](CO)NC(=O)[C@@H](N)Cc1c[nH]cn1)[C@@H](C)O)[C@@H](C)O)C(=O)N[C@@H](CCCNC(=N)N)C(=O)N[C@@H](C)C(=O)N[C@@H](CCCCN)C(=O)N[C@@H](CC(=O)O)C(=O)N[C@@H](Cc1ccccc1)C(=O)N[C@H](C(=O)N[C@@H](CCC(=O)O)C(=O)N[C@@H](Cc1c[nH]c2ccccc12)C(=O)N[C@@H](CC(C)C)C(=O)N[C@@H](CC(C)C)C(=O)N[C@@H](CO)C(=O)N[C@@H](C)C(N)=O)[C@@H](C)CC)C(=O)O` [Compound 18] (HELM PEPTIDE1{H.S.H.G.T.F.T.S.D.Y.S.K.Y.L.D.E.K.R.A.K.D.F.I.E.W.L.L.S.A.[am]}|PEPTIDE2{[CCCCCCCCCCCCCCCC(=O)[*:2]].[gGlu]}$PEPTIDE1,PEPTIDE2,17:R3-2:R2$$$V2.0) stands 0.09 nM.
